What is called IC50 is the concentration at which inhibition is half-maximal. A low value points to higher potency. As a reminder, the inhibition is the share of the control response that was lost under treatment. A lower inhibition goes with a weak effect.

Each structure is given as a SMILES string.

The target of the first assay is T1, hDGAT1 (Homo sapiens, UniProt O75907).
T1 construct: endogenous in cells; host or cells: HEK293H cells
T1 sequence (O75907 1-488): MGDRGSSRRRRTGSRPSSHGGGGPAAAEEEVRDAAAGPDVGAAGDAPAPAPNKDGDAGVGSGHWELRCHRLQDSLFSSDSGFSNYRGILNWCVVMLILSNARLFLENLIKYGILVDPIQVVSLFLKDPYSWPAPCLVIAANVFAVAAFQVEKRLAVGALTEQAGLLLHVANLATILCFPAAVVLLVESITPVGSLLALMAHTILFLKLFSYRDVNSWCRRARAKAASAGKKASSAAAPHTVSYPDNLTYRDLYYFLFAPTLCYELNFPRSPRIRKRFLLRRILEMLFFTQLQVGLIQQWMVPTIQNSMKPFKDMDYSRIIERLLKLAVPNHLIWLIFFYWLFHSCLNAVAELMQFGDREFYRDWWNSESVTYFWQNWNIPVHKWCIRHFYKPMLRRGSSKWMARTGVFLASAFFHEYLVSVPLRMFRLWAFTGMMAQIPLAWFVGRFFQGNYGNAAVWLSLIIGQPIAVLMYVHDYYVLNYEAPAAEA
Put plainly: Cell based hDGAT1 inhibitory activity in HEK293H cells (13C-oleic acid to triolein, LC-MS).
Settings: not given
As to the method:
Measurement of Cell Based hDGAT1 Inhibitory Activity:
HEK293H cells were seeded in a 96-well poly-D-lysine plate at a density of 80000 cells per well. Following day, cells were washed with assay buffer-DMEM high glucose supplemented with 25 mM Hepes (pH7.5) carrying 0.25% fatty acid-free bovine serum. The cells were starved in assay buffer at 37° C./5% CO2 followed by removal of media and treatment with appropriate concentrations of the test compound at a final concentration of 0.2% DMSO for 20 min. 13C-Oleic acid pre-complexed with BSA (300 uM) was added and cells were incubated further at […]/5% CO2 for 120 min. The supernatant was removed and the cells were allowed to air dry briefly. The extraction solvent (90% isopropyl alcohol and 10% tetrahydrofuran with 20 nM of the internal standard [1,3-di-heptadecanoyl-2-(10Z-heptadecanoyl)-sn-glycerol-d5) was added to the cells, and allowed to shake at room temperature for 15 min. The extract was then transferred to glass vials for LC-MS analysis. An Applied Biosystems API3200 LC/MS system interfaced with a triplequadrupole mass spectrophotometer through a Turbo ion spray source was employed for the LC separation of the analytes using a Hi-Purity ADVANCE column eluted with 10 mM ammonium formate in IPA-H2O (80:20) at a flow rate of 0.4 mL/min. A characteristic in-source fragment ion m/z 639.7 formed from the precursor ion ^13C-54-triolein (m/z 956.8, ammonium adduct) at a collision energy of 30 and declustering potential 70 was monitored. IC50 values of the compounds were determined based on percent inhibition calculated on the basis of area ratio of product (TG) and internal standard (IS).
Molecule `COC(=O)C1CC2(CCC(c3ccc(NC(=O)c4nnc(Nc5ccc(F)c(F)c5)o4)cc3)CC2)C1` (stereo not drawn) [Example A9, methyl 7-[4-[[5-(3,4-difluoroanilino)-1,3,4-oxadiazole-2-carbonyl]amino]phenyl]spiro[3.5]nonane-2-carboxylate] yielded an IC50 of 31 nM.
For the molecule `CCOC(=O)C1CC2(CCN(c3ccc(NC(=O)c4nnc(Nc5ccc(F)c(F)c5)o4)cn3)CC2)C1` [Example A12, ethyl 7-[5-[[5-(3,4-difluoroanilino)-1,3,4-oxadiazole-2-carbonyl]amino]-2-pyridyl]-7-azaspiro[3.5]nonane-2-carboxylate], the IC50 was 22 nM.
On the same count and under the same terms, next, `O=C(Nc1ccc(N2CCC3(CC2)CC(C(=O)O)C3)nc1)c1nnc(Nc2ccc(OCC(F)(F)F)nc2)o1` [Example B13, 7-[5-[[5-[[6-(2,2,2-trifluoroethoxy)-3-pyridyl]amino]-1,3,4-oxadiazole-2-carbonyl]amino]-2-pyridyl]-7-azaspiro[3.5]nonane-2-carboxylic acid]: 47 nM.
In turn, `O=C(Nc1ccc(C2CCC3(CC2)CC3C(=O)O)cc1)c1nnc(Nc2ccc(F)c(F)c2)o1` (stereo not drawn) [Example B14, 6-[4-[[5-(3,4-difluoroanilino)-1,3,4-oxadiazole-2-carbonyl]amino]phenyl] spiro [2.5] octane-2-carboxylic acid] showed an IC50 of 21 nM.
`O=C(Nc1ccc(C2CCC3(CC2)CC3C(=O)O)cc1)c1nnc(Nc2ccc(OCC(F)(F)F)nc2)o1` (stereo not drawn) [Example B15, 6-[4-[[5-[[6-(2,2,-trifluoroethoxy)-3-pyridyl]amino]-1,3,4-oxadiazole-2-carbonyl]amino]phenyl] spiro [2.5] octane-2-carboxylic acid] gave an IC50 of 10 nM.
`O=C(Nc1ccc(C2CCC3(CC2)CC3C(=O)O)cc1)c1nnc(Nc2cccc(Cl)c2)o1` (stereo not drawn) [Example B16, 6-[4-[[5-(3-chloroanilino)-1,3,4-oxadiazole-2-carbonyl]amino]phenyl] spiro [2.5] octane-2-carboxylic acid] came in with an IC50 of 16 nM.
Turning to `O=C(Nc1ccc(N2CCC3(CC2)CC3C(=O)O)nc1)c1nnc(Nc2ccc(OCC(F)(F)F)nc2)o1` (stereo not drawn) [Example B21, 6-[5-[[5-[[6-(2,2,2-trifluoroethoxy)-3-pyridyl]amino]-1,3,4-oxadiazole-2-carbonyl]amino]-2-pyridyl]-6-azaspiro [2.5] octane-2-carboxylic acid], half-maximal inhibition (IC50) required 64 nM.
`O=C(Nc1ccc(N2C3CCC2CC2(CC(C(=O)O)C2)C3)nc1)c1nnc(Nc2ccc(F)c(F)c2)o1` (stereo not drawn) [Example B31, 8-[5-[[5-(3,4-difluoroanilino)-1,3,4-oxadiazole-2-carbonyl]amino]-2-pyridyl] spiro [8-azabicyclo [3.2.1]octane-3,3′-cyclobutane]-1′-carboxylic acid] returned an IC50 of 37 nM.
`O=C(Nc1ccc(N2CCC3(CC2)CC(C(=O)N2CCC(O)CC2)C3)nc1)c1nnc(Nc2ccc(F)c(F)c2)o1` [Example C6] displayed an IC50 of 33 nM.
For `O=C(Nc1ccc(N2CCC3(CC2)CC(C(=O)N2CC(O)C2)C3)nc1)c1nnc(Nc2ccc(F)c(F)c2)o1` [Example C8], inhibition was half-maximal at 11 nM (IC50).
On the same count and under the same terms, next, `O=C(Nc1ccc(N2CCC3(CC2)CC(F)(F)C3)nc1)c1nnc(Nc2ccc(F)c(F)c2)o1` [Example D1, 5-(3,4-difluoroanilino)-N-[6-(2,2-difluoro-7-azaspiro[3.5]nonan-7-yl)-3-pyridyl]-1,3,4-oxadiazole-2-carboxamide]: 85 nM; `O=C(Nc1ccc(N2CCC3(CC2)CC(F)(F)C3)nc1)c1nnc(Nc2ccc(OCC(F)(F)F)nc2)o1` [Example D2]: 64 nM; `CC1CC2(CCN(c3ccc(NC(=O)c4nnc(Nc5ccc(F)c(F)c5)o4)cn3)CC2)C1` [Example D3]: 32 nM.
Regarding `CC1CC2(CCN(c3ccc(NC(=O)c4nnc(Nc5ccc(OCC(F)(F)F)nc5)o4)cn3)CC2)C1` [Example D4], inhibition was half-maximal at 26 nM (IC50).
`O=C(Nc1ccc(N2CCC3(CC2)CC(O)C3)nc1)c1nnc(Nc2ccc(F)c(F)c2)o1` [Example D5]: the IC50 worked out at 4 nM.
Take `O=C(Nc1ccc(N2CCC3(CC2)CC(O)C3)nc1)c1nnc(Nc2ccc(OCC(F)(F)F)nc2)o1` [Example D6]: the IC50 is 4.2 nM.
On to `O=C(Nc1ccc(N2CCC3(CC2)CC(CO)C3)nc1)c1nnc(Nc2ccc(F)c(F)c2)o1` [Example E1, 5-(3,4-difluoroanilino)-N-[6-[2-(hydroxymethyl)-7-azaspiro[3.5]nonan-7-yl]-3-pyridyl]-1,3,4-oxadiazole-2-carboxamide], for which half-maximal inhibition (IC50) was put at 10 nM.
Still for that read-out and setting: next, `NC(=O)C1CC2(CCN(c3ccc(NC(=O)c4nnc(Nc5ccc(F)c(F)c5)o4)cn3)CC2)C1` [Example F1, N-[6-(2-carbamoyl-7-azaspiro[3.5]nonan-7-yl)-3-pyridyl]-5-(3,4-difluoroanilino)-1,3,4-oxadiazole-2-carboxamide]: 44 nM.
For `NC(=O)CC1CCC2(CC1)CCN(c1ccc(NC(=O)c3nnc(Nc4ccc(F)c(F)c4)o3)cn1)CC2` [Example F2, N-[6-[3-(2-amino-2-oxo-ethyl)-9-azaspiro[5.5]undecan-9-yl]-3-pyridyl]-5-(3,4-difluoroanilino)-1,3,4-oxadiazole-2-carboxamide], the IC50 is 19 nM.

The same assay, now with this note: 1 uM.
Consider `CC1(C)CN(c2ccc(C3CCC4(CC3)CC4C(=O)O)cc2)C(=O)c2c(N)ncnc21` (stereo not drawn) [Example L5, 6-[4-(4-amino-8,8-dimethyl-5-oxo-7H-pyrido[4,3-d]pyrimidin-6-yl)phenyl]spiro[2.5]octane-2-carboxylic acid], for which the “HEK293H cell % Inhibition at 1 uM” value is reported as “No inhibition at 1 μM”.

The same assay, now with this note: HEK293-H, 1 uM.
Molecule `O=C(Nc1ccc([C@H]2CC[C@]3(CC2)CC3C(=O)O)nc1)c1nnc(Nc2ccccc2)o1` (stereo partly drawn) [Example B24, Trans-6-[5-[(5-anilino-1,3,4-oxadiazole-2-carbonyl)amino]-2-pyridyl] spiro [2.5] octane-2-carboxylic acid] registered an inhibition at 1 µM of 49%.
Regarding `O=C(Nc1ccc([C@H]2CC[C@]3(CC2)CC3C(=O)O)nc1)c1nnc(Nc2ccc(F)c(F)c2)o1` (stereo partly drawn) [Example B26, Trans-6-[5-[[5-(3,4-difluoroanilino)-1,3,4-oxadiazole-2-carbonyl]amino]-2-pyridyl] spiro [2.5] octane-2-carboxylic acid], the inhibition at 1 µM stood at 37%.
Molecule `O=C(Nc1ccc(N2CCC3(CC2)CC(C(=O)N2CCCC2)C3)nc1)c1nnc(Nc2ccc(F)c(F)c2)o1` [Example C1, 5-(3,4-difluoroanilino)-N-[6-[2-(pyrrolidine-1-carbonyl)-7-azaspiro[3.5]nonan-7-yl]-3-pyridyl]-1,3,4-oxadiazole-2-carboxamide] returned an inhibition at 1 µM of 86%.
`CC1CCCCN1C(=O)C1CC2(CCN(c3ccc(NC(=O)c4nnc(Nc5ccc(F)c(F)c5)o4)cn3)CC2)C1` (stereo not drawn) [Example C2] came in with an inhibition at 1 µM of 88%.
`O=C(Nc1ccc(N2CCC3(CC2)CC(C(=O)N2CCOCC2)C3)nc1)c1nnc(Nc2ccc(F)c(F)c2)o1` [Example C3] yielded an inhibition at 1 µM of 84%.
For the molecule `O=C(Nc1ccc(N2CCC3(CC2)CC(C(=O)NCC(F)(F)F)C3)nc1)c1nnc(Nc2ccc(F)c(F)c2)o1` [Example C4], the inhibition at 1 µM was determined as 84%.
`COC1CCN(C(=O)C2CC3(CCN(c4ccc(NC(=O)c5nnc(Nc6ccc(F)c(F)c6)o5)cn4)CC3)C2)CC1` [Example C5] returned an inhibition at 1 µM of 90%.
With `O=C1CCN(C(=O)C2CC3(CCN(c4ccc(NC(=O)c5nnc(Nc6ccc(F)c(F)c6)o5)cn4)CC3)C2)CC1` [Example C9], the inhibition at 1 µM came out at 92%.
Molecule `O=C(Nc1ccc(N2CCC3(CC2)CC(F)C3)nc1)c1nnc(Nc2ccc(F)c(F)c2)o1` [Example D7] returned an inhibition at 1 µM of 87%.
On to `O=C(Nc1ccc(N2CCC3(CC2)CC(F)C3)nc1)c1nnc(Nc2ccc(OCC(F)(F)F)nc2)o1` [Example D8], for which testing at 1 µM gave an inhibition of 77%.
For `Cn1nnnc1C1CC2(CCN(c3ccc(NC(=O)c4nnc(Nc5ccc(F)c(F)c5)o4)cn3)CC2)C1` [Example D9], testing at 1 µM gave an inhibition of 91%.
As for `Nc1ncnc2ncn(-c3ccc(N4CCC5(CC4)CC(F)C5)nc3)c(=O)c12` [Example K4], the inhibition at 1 µM came to 19%.
On to `CC1(C)CN(c2ccc(C3CCC4(CCC(CC(=O)O)CC4)CC3)cc2)C(=O)c2c(N)ncnc21` (stereo not drawn) [Example L6], for which the inhibition at 1 µM turned out to be 3%.

The values are drawn from patent US9550793B2, “Spirocyclic compounds, compositions and medicinal applications thereof” (Advinus Therapeutics Limited, priority 2012, dated 2017).
